“Also recorded” adds a separate entry of the source.
Experiments:
[1] = Fecal concentration and excretion after oral sustained release dose; assay type: in vivo, human
Description: The method used for analyzing Compound 1 in human feces is a qualified method. The human fecal samples are collected in 1:1 homogenate at the clinical site [1 part of water (mL): 1 part of faces(g)]. Prior to sample analysis, additional water is added to the sample homogenate to achieve the final ratio of feces to water at 1:19 as calibration standard and QC samples. The final homogenates are processed and analyzed with calibration standards and QC samples. For human homogenate analysis, briefly, 100 μL of the feces homogenate (blanks, QC and study samples) is placed in a test tube. After an aliquot of 20 μL of internal standard is added and mixed, an aliquot of 200 μL of 0.1 M NaHCO3 is added and vortexed. Then 2 mL of MtBE is added and the samples are vortexed. After centrifugation, MtBE layer is transferred to a clean test tube. The samples were then dried under nitrogen at approximately 40° C. An aliquot of 1 mL of reconstitution solution (acetonitrile:water, 50:50, v/v) is then added to each sample and vortexed. Then 10 μL of the sample was diluted with 3 mL reconstitution solution in a clean test tube. The sample is transferred to an autosampler vial and 10 μL is injected into an LC-MS/MS for analysis. The LC-MS/MS analysis is carried out with an AB Sciex API 4000 or API 4000 QTrap mass spectrometer coupled with an HPLC pump and an autosampler. The chromatographic separation is achieved on a Agilent Eclipse Plus C8 50×4.6 mm, 5 μm HPLC column, with gradient elution. The mass spectrometer is operated in positive ESI mode. MRM transition is m/z 554.3→186.2 for Compound 1 and m/z 558.4→190.2 for the internal standard. Peak-area integrations are performed using the Analyst software and concentrations are calculated in Watson LIMS. Concentrations of human feces homogenates are calculated using 8 concentration levels ranging from 1 μg/g to 300 μg/g (1.8 μM to 542 μM) with weighted linear regression, according to the following formula: y=ax+b(weighting factor=1/x^2)
where x=Compound 1 concentration in μg/g in human feces homogenates, y=Peak-area ratio, a=Slope, and b=Intercept.
Methods: Compound 1 concentrations in plasma and feces (colonic surrogate) were determined following a single sustained release 25 mg oral dose (see, e.g., Example B, 25 mg SR composition). Compound 1 concentrations in plasma following a single 100 mg dose were also determined in a separate study (see, e.g., Example C for measuring concentrations of Compound 1 in plasma). Ex vivo study: Colon tissue samples from healthy and UC subjects (2/group) were mounted on a vertical Ussing diffusion chamber. [^14C]Compound 1 was applied to the apical side of the chamber at 100 and 1000 nM and incubated for 1 h. Samples were collected from the donor and receiver sides for determination of Compound 1 concentration. The colonic tissue was snap frozen for quantitative autoradiography.

[2] = test system: patients with plaque psoriasis; experiment: Clinical study in patients with plaque psoriasis (sPGA, safety); assay type: in vivo, human
Description: (§1) The systemic effects of Compound 1 have been studied in the auto-immune diseases RA and Ps. Inhibition of phosphorylation of STAT3 following stimulation with IL-6, a marker of AK1 inhibition, and TPO, a marker of JAK2 inhibition was measured in both studies. In patients with Ps doses of 100 mg QD, 200 mg QD, 200 mg BID, and 600 mg QD were studied.

[3] = Circulating and colon tissue drug concentrations in mice, oral vs intracolonic; assay type: in vivo, mouse
Excerpt: (§2) Preclinical models of IBD were established in BALB/c mice by intracolonic injection of 2,4,6-trinitrobenzene sulfonic acid (TNBS) or 4-ethoxymethylene-2-phenyl-2-oxazolin-5-one (oxazolone) to trigger an immune response, as described below. Body weight, stool consistency and fecal blood were scored. Additional readouts included colon weight to length ratio and histological evaluation. Blood was collected for pharmacokinetic analysis.
In a further study, quantification of circulating and tissue drug concentrations clearly differentiated the local versus systemic JAK1 target inhibition. […] In contrast, localized Compound 1 delivery was characterized by minimal peak systemic concentrations of approximately 0.04 μM but sustained exposure ≥0.45 μM in the colon tissue, as shown in FIG. 11D. Therefore, strategic targeting or release of JAK1 inhibitors within the inflamed gastrointestinal tissue can potentially achieve improved benefit-risk profiles.

RA patients = experiment: Clinical study in rheumatoid arthritis patients (ACR responses, ANC); assay type: in vivo, human
Description: However, the greatest inhibition appeared to be observed following 200 mg BID dosing. Also noteworthy is that the 100 mg QD dose had less TPO induced pSTAT3 inhibition than placebo.

[4] = test system: TNBS-induced colitis in BALB/c mice; experiment: TNBS-induced colitis model in mice; assay type: in vivo, mouse
Excerpt: as §2
Male BALB/c mice were purchased (Charles River Laboratories) and distal colitis was induced by intracolonic instillation of TNBS (2,4,6-trinitrobenzenesulfonic acid solution, 1 mg in 0.1 mL 50% ethanol). Compound 1 treatment was administered at 30 mg/kg by oral gavage (PO) or 3 mg/kg by intracolonic injection (IC) twice daily (BID). Diarrhea was quantified on a 0-3 rating scale, (0=normal; 1=soft but still formed; 2=very soft; 3=diarrhea) on days 3 to 5 post TNBS sensitization.

[5] = test system: IL-6-induced STAT3 phosphorylation; experiment: Ex vivo IL-6-induced STAT3 phosphorylation in dosed patients (marker of JAK1 inhibition); design: species or system human; conditions: 100 mg QD to 600 mg QD
Description: To assess the inhibitory activity of Compound 1 in serum-rich media, e.g., plasma or whole blood, the assay is conducted using whole blood; briefly, the whole blood sample is stimulated with IL-6 and levels of phosphorylated STAT3 are determined. This assay can be conducted either in vitro (human blood samples are spiked with Compound 1) or ex vivo (whole blood samples collected from human subjects dosed with Compound 1).
as §1

[6] = localized intracolonic delivery (3 mg/kg)

N#CCC1(n2cc(-c3ncnc4[nH]ccc34)cn2)CN(C2CCN(C(=O)c3ccnc(C(F)(F)F)c3F)CC2)C1 [Compound 1, {1-{1-[3-Fluoro-2-(trifluoromethyl)isonicotinoyl]piperidin-4-yl}-3-[4-(7H-pyrrolo[2,3-d]pyrimidin-4-yl)-1H-pyrazol-1-yl]azetidin-3-yl}acetonitrile]
administered dose excreted intact as parent compound in the feces ([1]; humans, oral): ~30% | Maximal fecal concentration, geometric mean ([1]; single 25 mg SR dose, feces 0-24 hours): 85.5 nM | Maximal fecal concentration, Mean ([1]; single 25 mg SR dose, feces 0-24 hours, SD 41.4 nM): 93.4 nM | patients with maximum fecal concentrations exceeding the in vitro IC50 for JAK1 inhibition (58 nM) ([1]; single 25 mg dose): eight of twelve | dose eliminated as unchanged Compound 1 in the feces ([1]; sustained release formulation): 27.1% | mean change from baseline sPGA at Day 28, dose relation ([2]; 100 mg QD, 200 mg QD, 200 mg BID, 600 mg QD): dose-dependent response | Day 28 sPGA score, Mean (SD) ([2]; 100 mg QD, n=9): 2.6 (1.01) | Day 28 sPGA score, Median ([2]; 100 mg QD, n=9): 2.0 | Percent change from baseline in sPGA score at Day 28, Median ([2]; 100 mg QD, n=9): −33.3% | Percent change from baseline in sPGA score at Day 28, Mean (SD) ([2]; 100 mg QD, n=9, p=0.270 vs placebo): −22.2 (23.57) Percent | change from baseline in sPGA, clinical meaning ([2]; 200 mg BID (p=0.053) and 600 mg QD (p=0.003)): clinically meaningful changes from baseline | Day 28 sPGA score, Mean (SD) ([2]; 200 mg BID, n=9): 2.0 (1.00) | Day 28 sPGA score, Median ([2]; 200 mg BID, n=9): 2.0 | Percent change from baseline in sPGA score at Day 28, Median ([2]; 200 mg BID, n=9): −33.3% | Percent change from baseline in sPGA score at Day 28, Mean (SD) ([2]; 200 mg BID, n=9, p=0.053 vs placebo): −35.2 (33.79) Percent | Day 28 sPGA score, Mean (SD) ([2]; 200 mg QD, n=9): 2.3 (1.00) | Day 28 sPGA score, Median ([2]; 200 mg QD, n=9): 2.0 | Percent change from baseline in sPGA score at Day 28, Median ([2]; 200 mg QD, n=9): −33.3% | Percent change from baseline in sPGA score at Day 28, Mean (SD) ([2]; 200 mg QD, n=9, p=0.118 vs placebo): −29.4 (31.14) Percent | Day 28 sPGA score, Mean (SD) ([2]; 600 mg QD, n=11): 1.8 (0.98) | Day 28 sPGA score, Median ([2]; 600 mg QD, n=11): 2.0 | Percent change from baseline in sPGA score at Day 28, Median ([2]; 600 mg QD, n=11): −33.3% | Percent change from baseline in sPGA score at Day 28, Mean (SD) ([2]; 600 mg QD, n=11, p=0.003 vs placebo): −42.4 (26.21) Percent | neutropenia ([2]; psoriasis patients): No neutropenia was noted | systemic drug exposure relative to JAK1 IC50 ([3]; intracolonic doses): below JAK1 IC50 | peak systemic concentrations [3, 6]: approximately 0.04 μM | sustained exposure in the colon tissue [3, 6]: ≥ 0.45 µM | peak circulating drug level ([3]; oral dosing (30 mg/kg)): approximately 11 μM | ACR20, ACR50, and ACR70 responses versus placebo (RA patients; 600 mg QD, Day 84 visit): statistically significant differences in ACR20, ACR50, and ACR70 responses | decreased ANC (RA patients; RA patients): several cases of decreased ANC but no dose-dependent trend was observed | fecal blood score ([4]; 3 mg/kg IC BID): significant (p<0.05) decrease in fecal blood score | total colonic macroscopic damage ([4]; 3 mg/kg IC BID): ameliorated total colonic macroscopic damage | disease severity / disease recovery ([4]; 3 mg/kg intracolonic BID): significantly reduced disease severity; also recorded: highly efficacious in enhancing disease recovery; also recorded: more rapidly induced recovery; also recorded: highly efficacious in TNBS-induced colitis | disease severity / disease score recovery ([4]; 30 mg/kg PO BID, vs vehicle): significantly reduced disease severity; also recorded: accelerated disease score recovery | stool consistency ([4]; 30 mg/kg PO or 3 mg/kg intracolonic, twice daily, vs control): significantly (p<0.05) improved stool consistency | inhibition of IL-6 induced pSTAT3 ([5]; RA patients, Cycle 1 Day 15): general trend of dose-dependent inhibition of IL-6 induced pSTAT3 | inhibition of pSTAT3 in response to IL-6 stimulation ex vivo ([5]; psoriasis patients): concentration dependent inhibition of pSTAT3

From patent publication US11596632B2, “JAK1 pathway inhibitors for the treatment of gastrointestinal disease” (Incyte Corporation, priority 2018, dated 2023)
